According to patent US20230389548A1, “MIXTURES OF PYRIMIDINES AS HERBICIDAL COMPOSITIONS” (SYNGENTA CROP PROTECTION AG, priority 2020, published 2023):

Experiments:
Assay in all cases: Post-emergence glasshouse spray test, visual percentage phytotoxicity after 13 days
Format in all cases: in vivo
[1] = system: Abutilon threophrasti (ABUTH); settings: B1
Protocol: (§1) Seeds of Setaria faberi (SETFA), Echinochloa crus-galli (ECHCG), Digitaria sanguinalis (DIGSA), Lolium perenne (LOLPE), Alopecurus myosuroides (ALOMY), Chenopodium album (CHEAL), Ipomoea hederacea (IPOHE), Stellaria media (STEME), Abutilon threophrasti (ABUTH), Amaranthus retroflexus (AMARE) were sown in standard sterilised soil in pots. After cultivation for 8 days under controlled conditions in a glasshouse (at 24/19° C., day/night; 16 hours light; no humidity control), the plants were sprayed at 500 l/Ha with an aqueous spray solution derived from the formulation of the technical active ingredients in a small amount of acetone and a solvent and emulsifier mixture referred to as IF50 (11.12% Emulsogen EL360™+44.44% N-methylpyrrolidone+44.44% Dowanol DPM glycol ether), to create a 50 g/l solution which was then diluted using 0.2% Genapol XO80 (CAS Number: 9043-30-5) as diluent to give the desired final dose of test compound.
(§2) Where active ingredients were applied as mixtures, aqueous spray solutions were prepared as above, containing both active ingredients.
(§3) The test plants were then grown under controlled conditions in a glasshouse (at 24/18° C., day/night; 15 hours light; 50% humidity) and watered twice daily. After 13 days, the test was evaluated visually for percentage phytotoxicity to the plants (where 100=total damage to plant; 0=no damage to plant; and NC=not captured) when compared to control untreated plants. Two to four replicates were applied for each treatment in a randomised block test design.
(§4) 22., E=X+Y−(X*Y/100), where
(§5) X=average percent phytotoxicity of herbicide A when applied at a certain rate Y=average percent phytotoxicity using herbicide B when applied at a certain rate E=the expected effect of the mixture of herbicides A and B as calculated from the Colby formula.

[2] = system: Alopecurus myosuroides (ALOMY); settings: for ALOMY percentage phytotoxicity: B1; for Observed phytotoxicity ALOMY: B2.2.5
Protocol: as §1, §2, §3, §4, §5

[3] = system: Amaranthus retroflexus (AMARE); settings: for AMARE percentage phytotoxicity: B1; for Observed phytotoxicity AMARE: B2.2.6
Protocol: as §1, §2, §3, §4, §5

[4] = system: Chenopodium album (CHEAL); settings: B1
Protocol: as §1, §2, §3, §4, §5

[5] = system: Digitaria sanguinalis (DIGSA); settings: for DIGSA percentage phytotoxicity: B1; for Observed phytotoxicity DIGSA: B2.2.3
Protocol: as §1, §2, §3, §4, §5

[6] = system: Echinochloa crus-galli (ECHCG); settings: for ECHCG percentage phytotoxicity: B1; for Observed phytotoxicity ECHCG: B2.2.2
Protocol: as §1, §2, §3, §4, §5

[7] = system: Ipomoea hederacea (IPOHE); settings: B1
Protocol: as §1, §2, §3, §4, §5

[8] = system: Lolium perenne (LOLPE); settings: for LOLPE percentage phytotoxicity: B1; for Observed phytotoxicity LOLPE: B2.2.4
Protocol: as §1, §2, §3, §4, §5

[9] = system: Setaria faberi (SETFA); settings: for SETFA percentage phytotoxicity: B1; for Observed phytotoxicity SETFA: B2.2.1
Protocol: as §1, §2, §3, §4, §5

[10] = system: Stellaria media (STEME); settings: B1
Protocol: as §1, §2, §3, §4, §5

Which ABUTH percentage phytotoxicity ([1]; 31.25 g/ha post-emergence) does the source give for `CC1(C)CN(Cc2ccccc2NS(=O)(=O)C(F)(F)F)C1=O` [B-IV] here?
Its ABUTH percentage phytotoxicity is 80%.

What about the ABUTH percentage phytotoxicity ([1]; 62.5 g/ha post-emergence) of the same molecule?
The ABUTH percentage phytotoxicity was 80%.

What about the ABUTH percentage phytotoxicity ([1]; 125 g/ha post-emergence) of the same molecule?
Its ABUTH percentage phytotoxicity is 90%.

And the ABUTH percentage phytotoxicity ([1]; 250 g/ha post-emergence)?
Its ABUTH percentage phytotoxicity is 98%.

And the ABUTH percentage phytotoxicity ([1]; 500 g/ha post-emergence)?
The ABUTH percentage phytotoxicity was 85%.

What about the ABUTH percentage phytotoxicity ([1]; 1000 g/ha post-emergence) of the same molecule?
The ABUTH percentage phytotoxicity was 85%.

And the ALOMY percentage phytotoxicity ([2]; 31.25 g/ha post-emergence)?
The ALOMY percentage phytotoxicity was 4%.

What about the ALOMY percentage phytotoxicity ([2]; 62.5 g/ha post-emergence) of the same molecule?
Its ALOMY percentage phytotoxicity is 2%.

What about the ALOMY percentage phytotoxicity ([2]; 125 g/ha post-emergence) of the same molecule?
The ALOMY percentage phytotoxicity was 1%.

What about the ALOMY percentage phytotoxicity ([2]; 250 g/ha post-emergence) of the same molecule?
The ALOMY percentage phytotoxicity was 3%.

And the ALOMY percentage phytotoxicity ([2]; 500 g/ha post-emergence)?
Its ALOMY percentage phytotoxicity is 8%.

What about the ALOMY percentage phytotoxicity ([2]; 1000 g/ha post-emergence) of the same molecule?
Its ALOMY percentage phytotoxicity is 8%.

And the “Observed phytotoxicity ALOMY” value ([2]; 500 g/ha post-emergence)?
The value was 8%.

And the “Observed phytotoxicity ALOMY” value ([2]; 1000 g/ha post-emergence)?
The value was 8%.

What about the AMARE percentage phytotoxicity ([3]; 31.25 g/ha post-emergence) of the same molecule?
The AMARE percentage phytotoxicity was 0%.

And the AMARE percentage phytotoxicity ([3]; 62.5 g/ha post-emergence)?
Its AMARE percentage phytotoxicity is 15%.

And the AMARE percentage phytotoxicity ([3]; 125 g/ha post-emergence)?
Its AMARE percentage phytotoxicity is 43%.

And the AMARE percentage phytotoxicity ([3]; 250 g/ha post-emergence)?
The AMARE percentage phytotoxicity was 43%.

What about the AMARE percentage phytotoxicity ([3]; 500 g/ha post-emergence) of the same molecule?
Its AMARE percentage phytotoxicity is 75%.

And the AMARE percentage phytotoxicity ([3]; 1000 g/ha post-emergence)?
The AMARE percentage phytotoxicity was 85%.

And the “Observed phytotoxicity AMARE” value ([3]; 31.25 g/ha post-emergence)?
Its value is 0%.

And the “Observed phytotoxicity AMARE” value ([3]; 62.5 g/ha post-emergence)?
Its value is 15%.

What about the CHEAL percentage phytotoxicity ([4]; 31.25 g/ha post-emergence) of the same molecule?
The CHEAL percentage phytotoxicity was 0%.

What about the CHEAL percentage phytotoxicity ([4]; 62.5 g/ha post-emergence) of the same molecule?
The CHEAL percentage phytotoxicity was 8%.

What about the CHEAL percentage phytotoxicity ([4]; 125 g/ha post-emergence) of the same molecule?
Its CHEAL percentage phytotoxicity is 15%.

And the CHEAL percentage phytotoxicity ([4]; 250 g/ha post-emergence)?
The CHEAL percentage phytotoxicity was 40%.

And the CHEAL percentage phytotoxicity ([4]; 500 g/ha post-emergence)?
The CHEAL percentage phytotoxicity was 25%.

And the CHEAL percentage phytotoxicity ([4]; 1000 g/ha post-emergence)?
The CHEAL percentage phytotoxicity was 75%.

And the DIGSA percentage phytotoxicity ([5]; 31.25 g/ha post-emergence)?
The DIGSA percentage phytotoxicity was 0%.

And the DIGSA percentage phytotoxicity ([5]; 62.5 g/ha post-emergence)?
Its DIGSA percentage phytotoxicity is 3%.

What about the DIGSA percentage phytotoxicity ([5]; 125 g/ha post-emergence) of the same molecule?
Its DIGSA percentage phytotoxicity is 8%.

What about the DIGSA percentage phytotoxicity ([5]; 250 g/ha post-emergence) of the same molecule?
Its DIGSA percentage phytotoxicity is 10%.

What about the DIGSA percentage phytotoxicity ([5]; 500 g/ha post-emergence) of the same molecule?
The DIGSA percentage phytotoxicity was 15%.

What about the DIGSA percentage phytotoxicity ([5]; 1000 g/ha post-emergence) of the same molecule?
Its DIGSA percentage phytotoxicity is 55%.

What about the “Observed phytotoxicity DIGSA” value ([5]; 250 g/ha post-emergence) of the same molecule?
The value was 10%.

And the “Observed phytotoxicity DIGSA” value ([5]; 500 g/ha post-emergence)?
The value was 15%.

What about the “Observed phytotoxicity DIGSA” value ([5]; 1000 g/ha post-emergence) of the same molecule?
Its value is 55%.

What about the ECHCG percentage phytotoxicity ([6]; 31.25 g/ha post-emergence) of the same molecule?
Its ECHCG percentage phytotoxicity is 1%.

And the ECHCG percentage phytotoxicity ([6]; 62.5 g/ha post-emergence)?
Its ECHCG percentage phytotoxicity is 13%.

What about the ECHCG percentage phytotoxicity ([6]; 125 g/ha post-emergence) of the same molecule?
Its ECHCG percentage phytotoxicity is 38%.

And the ECHCG percentage phytotoxicity ([6]; 250 g/ha post-emergence)?
The ECHCG percentage phytotoxicity was 60%.

What about the ECHCG percentage phytotoxicity ([6]; 500 g/ha post-emergence) of the same molecule?
The ECHCG percentage phytotoxicity was 78%.

And the ECHCG percentage phytotoxicity ([6]; 1000 g/ha post-emergence)?
The ECHCG percentage phytotoxicity was 90%.

What about the “Observed phytotoxicity ECHCG” value ([6]; 125 g/ha post-emergence) of the same molecule?
The value was 38%.

And the “Observed phytotoxicity ECHCG” value ([6]; 250 g/ha post-emergence)?
Its value is 60%.

And the “Observed phytotoxicity ECHCG” value ([6]; 500 g/ha post-emergence)?
Its value is 78%.

And the IPOHE percentage phytotoxicity ([7]; 31.25 g/ha post-emergence)?
The IPOHE percentage phytotoxicity was 55%.

And the IPOHE percentage phytotoxicity ([7]; 62.5 g/ha post-emergence)?
The IPOHE percentage phytotoxicity was 80%.

And the IPOHE percentage phytotoxicity ([7]; 125 g/ha post-emergence)?
The IPOHE percentage phytotoxicity was 75%.

And the IPOHE percentage phytotoxicity ([7]; 250 g/ha post-emergence)?
The IPOHE percentage phytotoxicity was 83%.

And the IPOHE percentage phytotoxicity ([7]; 500 g/ha post-emergence)?
Its IPOHE percentage phytotoxicity is 83%.

And the IPOHE percentage phytotoxicity ([7]; 1000 g/ha post-emergence)?
The IPOHE percentage phytotoxicity was 94%.

And the LOLPE percentage phytotoxicity ([8]; 31.25 g/ha post-emergence)?
The LOLPE percentage phytotoxicity was 0%.

And the LOLPE percentage phytotoxicity ([8]; 62.5 g/ha post-emergence)?
The LOLPE percentage phytotoxicity was 0%.

What about the LOLPE percentage phytotoxicity ([8]; 125 g/ha post-emergence) of the same molecule?
The LOLPE percentage phytotoxicity was 0%.

What about the LOLPE percentage phytotoxicity ([8]; 250 g/ha post-emergence) of the same molecule?
Its LOLPE percentage phytotoxicity is 8%.

And the LOLPE percentage phytotoxicity ([8]; 500 g/ha post-emergence)?
The LOLPE percentage phytotoxicity was 38%.

And the LOLPE percentage phytotoxicity ([8]; 1000 g/ha post-emergence)?
The LOLPE percentage phytotoxicity was 65%.

And the “Observed phytotoxicity LOLPE” value ([8]; 62.5 g/ha post-emergence)?
Its value is 0%.

What about the “Observed phytotoxicity LOLPE” value ([8]; 125 g/ha post-emergence) of the same molecule?
The value was 0%.

What about the “Observed phytotoxicity LOLPE” value ([8]; 250 g/ha post-emergence) of the same molecule?
The value was 8%.

And the “Observed phytotoxicity LOLPE” value ([8]; 500 g/ha post-emergence)?
Its value is 38%.

What about the “Observed phytotoxicity LOLPE” value ([8]; 1000 g/ha post-emergence) of the same molecule?
The value was 65%.

What about the SETFA percentage phytotoxicity ([9]; 31.25 g/ha post-emergence) of the same molecule?
The SETFA percentage phytotoxicity was 2%.

What about the SETFA percentage phytotoxicity ([9]; 62.5 g/ha post-emergence) of the same molecule?
Its SETFA percentage phytotoxicity is 0%.

And the SETFA percentage phytotoxicity ([9]; 125 g/ha post-emergence)?
The SETFA percentage phytotoxicity was 10%.

What about the SETFA percentage phytotoxicity ([9]; 250 g/ha post-emergence) of the same molecule?
The SETFA percentage phytotoxicity was 8%.

What about the SETFA percentage phytotoxicity ([9]; 500 g/ha post-emergence) of the same molecule?
The SETFA percentage phytotoxicity was 33%.

What about the SETFA percentage phytotoxicity ([9]; 1000 g/ha post-emergence) of the same molecule?
Its SETFA percentage phytotoxicity is 63%.

What about the “Observed phytotoxicity SETFA” value ([9]; 125 g/ha post-emergence) of the same molecule?
Its value is 10%.

And the “Observed phytotoxicity SETFA” value ([9]; 250 g/ha post-emergence)?
Its value is 8%.

And the “Observed phytotoxicity SETFA” value ([9]; 500 g/ha post-emergence)?
The value was 33%.

And the “Observed phytotoxicity SETFA” value ([9]; 1000 g/ha post-emergence)?
Its value is 63%.

And the STEME percentage phytotoxicity ([10]; 31.25 g/ha post-emergence)?
Its STEME percentage phytotoxicity is 85%.

And the STEME percentage phytotoxicity ([10]; 62.5 g/ha post-emergence)?
Its STEME percentage phytotoxicity is 85%.

What about the STEME percentage phytotoxicity ([10]; 125 g/ha post-emergence) of the same molecule?
The STEME percentage phytotoxicity was 91%.

What about the STEME percentage phytotoxicity ([10]; 250 g/ha post-emergence) of the same molecule?
The STEME percentage phytotoxicity was 93%.

What about the STEME percentage phytotoxicity ([10]; 500 g/ha post-emergence) of the same molecule?
The STEME percentage phytotoxicity was 90%.

And the STEME percentage phytotoxicity ([10]; 1000 g/ha post-emergence)?
Its STEME percentage phytotoxicity is 93%.
